How the values were obtained:
Format in all cases: in vivo
[1] = test system: VIOAR, Field violet (Viola arvensis Murr.); assay: Greenhouse herbicidal efficacy on VIOAR
Method: (§1) Spray compositions of the Examples, containing an exogenous chemical, such as glyphosate potassium salt, in addition to the excipient ingredients listed, were evaluated for herbicidal efficacy according to the following method.
(§2) The amount of exogenous chemical was selected to provide the desired rate in grams per hectare (g/ha) when applied in a spray volume of 93 l/ha. Several exogenous chemical rates were applied for each composition. Thus, except where otherwise indicated, when spray compositions were tested, the concentration of exogenous chemical varied in direct proportion to exogenous chemical rate, but the concentration of excipient ingredients was held constant across different exogenous chemical rates.
(§3) Concentrate compositions were tested by dilution, dissolution or dispersion in water to form spray compositions. In these spray compositions prepared from concentrates, the concentration of excipient ingredients varied with that of exogenous chemical.
(§4) The herbicidal effectiveness data set forth herein report “inhibition” as a percentage following a standard procedure in the art which reflects a visual assessment of plant mortality and growth reduction by comparison with untreated plants, made by technicians specially trained to make and record such observations. In all cases, a single technician makes all assessments of percent inhibition within any one experiment or trial. Such measurements are relied upon and regularly reported by Monsanto Company in the course of its herbicide business.
(§5) The efficacy of potassium glyphosate formulations containing an APG surfactant and an EAO surfactant in an APG:EAO weight ratio of 4:1 and a glyphosate a.e. to total surfactant weight ratio of about 2.9:1 were evaluated in greenhouse trials. Also evaluated were potassium glyphosate compositions containing either an alkylpolyglucoside surfactant (designated as “Surfactant L” and “Surfactant N”) or an alkoxylated etheramine oxide surfactant (designated as “Surfactant G”) wherein the weight ratio of glyphosate a.e. to surfactant was about 2.9:1. Finally, the efficacy of potassium glyphosate not containing a surfactant (K-GLY) and comparative compositions 139R8H and 294T6K were also evaluated. The efficacy of each formulation, surfactant and comparative composition was evaluated at application rates of 100, 200 and 400 g glyphosate a.e. per hectare.
(§6) The efficacy of potassium glyphosate formulations containing various ratios of APG surfactants to EAO surfactants were evaluated in greenhouse trials as compared to comparative compositions 139R8H and 276U4D. The efficacy of each formulation, surfactant and comparative composition was evaluated at application rates of 200, 400 and 600 g glyphosate a.e. per hectare and the results are reported in Table ET4A wherein APG:EAO is the weight ratio of APG surfactant to EAO surfactant and Gly:Surf is the weight ratio of glyphosate a.e. to total surfactant.
The efficacy of potassium glyphosate formulations containing Atplus 452 and EAO surfactants were evaluated in greenhouse trials. The efficacy of each formulation, surfactant and comparative composition was evaluated at application rates of 100, 200, 300 and 400 g glyphosate a.e. per hectare and the results are reported in Table ET5A wherein APG:EAO is the weight ratio of APG surfactant to EAO surfactant and Gly:Surf is the weight ratio of glyphosate a.e. to total surfactant.

[2] = test system: SINAR, wild mustard (Sinapis arvensis L.); assay: Greenhouse herbicidal efficacy on SINAR
Method: as §1, §2, §3, §4, §5
(§7) The efficacy of potassium glyphosate formulations containing various APG surfactants and an EAO surfactant in an APG:EAO weight ratios and glyphosate a.e. to total surfactant weight ratios (Gly:Surf) as indicated in the tables below. Finally, the efficacy of comparative standard compositions 139R8H and 294T6K were also evaluated. The efficacy of each formulation, surfactant and comparative composition was evaluated at application rates of 100, 200 and 400 g glyphosate a.e. per hectare.
as §6

[3] = test system: LOLMU, Italian ryegrass (Lolium multiflorum Lam.); assay: Greenhouse herbicidal efficacy on LOLMU; conditions: for Application rate required for 85% control, LOLMU: calculated from rates 100, 200 and 400 g a.e./ha; for Average % control, LOLMU: average for 100, 200 and 400 g a.e./ha application rates
Method: as §1, §2, §3, §4, §5, §7

[4] = test system: MALSI, cheeseweed; assay: Greenhouse herbicidal efficacy on MALSI; conditions: Example ET9; average for 100, 200 and 400 g a.e./ha application rates
Method: as §1
The amount of exogenous chemical was selected to provide the desired rate in grams per hectare (g/ha) when applied in a spray volume of 93 l/ha. Several exogenous chemical rates were applied for each composition. […]
as §6, with “surfactant. For each plant species, efficacy results are reported as the average % control for the three application rates (Table ET4a) and the calculated application rate (g a.e./ha) that must be applied to achieve 85% control (Table ET4b).” for “surfactant.”

[5] = test system: ABUTH, velvetleaf (Abutilon theophrasti Medik.); assay: Greenhouse herbicidal efficacy on ABUTH; conditions: for Average % control, ABUTH: average for 100, 200 and 400 g a.e./ha application rates
Method: as §1, §2, §3
(§8) The herbicidal effectiveness data set forth herein report “inhibition” as a percentage following a standard procedure in the art which reflects a visual assessment of plant mortality and growth reduction by comparison with untreated plants, made by technicians specially trained to make and record such observations. In all cases, a single technician makes all assessments of percent inhibition within any one experiment or trial. […]
(§9) The efficacy of formulations containing potassium glyphosate and an APG surfactant (formulation 179W2N) or an EAO surfactant (formulation 179R6U) in a weight percent ratio of glyphosate a.e. to surfactant of 4:1 was evaluated in greenhouse trials as compared to compositions 276U4D, 351L9P, 294T6K and K-GLY. The efficacy of each formulation, surfactant and comparative composition was evaluated at application rates of 100, 200 and 400 g glyphosate a.e. per hectare and the results are reported in Table ET8A wherein APG:EAO is the weight ratio of alkylpolyglucoside (APG) surfactant to alkoxylated amine oxide (EAO) surfactant and Gly:Surf is the weight ratio of glyphosate a.e. to total surfactant. […]

[6] = test system: LOLMG, annual ryegrass; assay: Greenhouse herbicidal efficacy on LOLMG
Method: as §1, §2, §3, §8, §9

[7] = test system: CHEAL, common lambsquarters (Chenopodium album L.); assay: Greenhouse herbicidal efficacy on CHEAL
Method: as §1, §2, §3, §4

[8] = Example ET1, calculated from rates 100, 200 and 400 g a.e./ha
[9] = Example ET1, greenhouse, average of the three application rates
[10] = Example ET3, average for 100, 200 and 400 g a.e./ha application rates
[11] = Example ET3, calculated from rates 100, 200 and 400 g a.e./ha
[12] = Example ET5, average for 100, 200, 300 and 400 g a.e./ha application rates
[13] = Example ET5, calculated from rates 100, 200, 300 and 400 g a.e./ha
[14] = Example ET6, average for 200, 400 and 600 g a.e./ha application rates
[15] = Example ET6, calculated from rates 200, 400 and 600 g a.e./ha
[16] = Example ET9, average for 100, 200 and 400 g a.e./ha application rates
[17] = Example ET2, calculated from rates 100, 200 and 400 g a.e./ha

O=C(O)CNCP(=O)([O-])O.[K+] [K-GLY, potassium glyphosate]
Application rate required for 85% control, VIOAR [1, 8]: >400.0 g a.e./ha
Average % control for 100, 200 and 400 g a.e./ha application rates, VIOAR [1, 9]: 39.2%
Average % control, VIOAR [1, 10]: 27.5%
Application rate required for 85% control, VIOAR [1, 11]: >400.0 g a.e./ha
Average % control, VIOAR [1, 12]: 34.7%
Application rate required for 85% control, VIOAR [1, 13]: >400.0 g a.e./ha
VIOAR (ave. cntrl) [1, 14]: 31.7%
VIOAR (g a.e./ha for 85% control) [1, 15]: >600.0 g a.e./ha
Average % control, VIOAR [1, 16]: 36.7%
Application rate required for 85% control, SINAR [2, 8]: >400.0 g a.e./ha
Average % control for 100, 200 and 400 g a.e./ha application rates, SINAR [2, 9]: 67.5%
Average % control, SINAR ([2]; Example ET2, average for 100, 200 and 400 g a.e./ha application rates): 64.1%
Application rate required for 85% control, SINAR [2, 17]: >400.0 g a.e./ha
Average % control, SINAR [2, 12]: 72.5%
Application rate required for 85% control, SINAR [2, 13]: 366.7 g a.e./ha
SINAR 10 DAT (ave. Ctrl) ([2]; Example ET7, 10 DAT, average for 50, 100 and 300 g a.e./ha application rates): 74.6%
SINAR 10 DAT (g a.e./ha for 85% control) ([2]; Example ET7, 10 DAT, calculated from rates 50, 100 and 300 g a.e./ha): 227.3 g a.e./ha
Application rate required for 85% control, LOLMU ([3]; Example ET1): >400.0 g a.e./ha
Average % control for 100, 200 and 400 g a.e./ha application rates, LOLMU [3, 9]: 40.8%
Average % control, LOLMU ([3]; Example ET2): 58.1%
Application rate required for 85% control, LOLMU ([3]; Example ET2): >400.0 g a.e./ha
Average % control, LOLMU ([3]; Example ET3): 27.9%
Application rate required for 85% control, LOLMU ([3]; Example ET3): >400.0 g a.e./ha
LOLMU 23 DAT (ave. control) ([3]; Example ET7, 23 DAT, average for 50, 100 and 300 g a.e./ha application rates): 48.3%
LOLMU 23 DAT (g a.e./ha for 85% control) ([3]; Example ET7, 23 DAT, calculated from rates 50, 100 and 300 g a.e./ha): >300.0 g a.e./ha
Average % control, MALSI [4]: 22.8%
Average % control, ABUTH ([5]; Example ET2): 40.0%
Application rate required for 85% control, ABUTH [5, 17]: 400.0 g a.e./ha
Average % control, ABUTH ([5]; Example ET9): 27.2%
Average % control, LOLMG [6, 12]: 42.5%
Application rate required for 85% control, LOLMG [6, 13]: >400.0 g a.e./ha
Average % control, LOLMG [6, 16]: 37.8%
Average % control, CHEAL [7, 10]: 5.0%
Application rate required for 85% control, CHEAL [7, 11]: >400.0 g a.e./ha
CHEAL (ave. cntrl) [7, 14]: 33.3%
CHEAL (g a.e./ha for 85% control) [7, 15]: >600.0 g a.e./ha
